Reference: patent US9326985B2, “Heteroaryl pyridone and aza-pyridone amide compounds” (Genentech, Inc., priority 2013, dated 2016)

Columns and labels:
[1] = test system: CD69 by B lymphocytes in human whole blood activated with goat F(ab')2 anti-human IgM; assay: CD69 Whole Blood Assay (CD69 Hu Blood FACS); format: cell-based; details: Lymphocyte, CD69 positive of CD20 positive cells
Description: CD69 is a type II C-type lectin involved in lymphocyte migration and cytokine secretion.
Human blood is obtained from healthy volunteers, with the following restrictions: 1 week drug-free, non-smokers. Blood (approximately 20 mls to test 8 compounds) is collected by venipuncture into Vacutainer® (Becton, Dickinson and Co.) tubes with sodium heparin.
Solutions of Formula I compounds at 10 mM in DMSO are diluted 1:10 in 100% DMSO, then are diluted by three-fold serial dilutions in 100% DMSO for a ten point dose-response curve. The compounds are further diluted 1:10 in PBS and then an aliquot of 5.5 μl of each compound is added in duplicate to a 2 ml 96-well plate; 5.5 μl of 10% DMSO in PBS is added as control and no-stimulus wells. Human whole blood—HWB (100 μl) is added to each well. After mixing the plates are incubated at 37° C., 5% CO2, 100% humidity for 30 minutes. Goat F(ab′)2 anti-human IgM (10 μl of a 500 μg/ml solution, 50 μg/ml final) is added to each well (except the no-stimulus wells) with mixing and the plates are incubated for an additional 20 hours. At the end of the 20 hour incubation, samples are incubated with fluorescent labeled antibodies for 30 minutes, at 37° C., 5% CO2, 100% humidity. Include induced control, unstained and single stains for compensation adjustments and initial voltage settings. Samples are then lysed with PharM Lyse™ (BD Biosciences Pharmingen) according to the manufacturer's instructions. Samples are then transferred to a 96 well plate suitable to be run on the BD Biosciences HTS 96 well system on the LSRII machine. Data acquired and Mean Fluorescence Intensity values were obtained using BD Biosciences DIVA Software. Results are initially analyzed by FACS analysis software (Flow Jo).

[2] = biological target: T1, full length human wildtype Btk (Homo sapiens, UniProt Q06187); assay: Biochemical Btk Assay (BTK LC3K)
T1 construct: V5 (C); 6xHis (C); made in house; host or cells: Sf9 insect cells (baculovirus, pFastBac)
Description: A generalized procedure for a standard biochemical Btk, Kinase Assay that can be used to test Formula I compounds is as follows. A master mix minus Btk enzyme is prepared containing 1× Cell Signaling kinase buffer (25 mM Tris-HCl, pH 7.5, 5 mM beta-glycerophosphate, 2 mM dithiothreitol, 0.1 mM Na3VO4, 10 mM MgCl2), 0.5 μM Promega PTK Biotinylated peptide substrate 2, and 0.01% BSA. A master mix plus Btk enzyme is prepared containing 1× Cell Signaling kinase buffer, 0.5 μM (micromolar) PTK Biotinylated peptide substrate 2, 0.01% BSA, and 100 ng/well (0.06 mU/well) Btk enzyme. Btk enzyme is prepared as follows: full length human wildtype Btk (accession number NM-000061) with a C-terminal V5 and 6×His tag was subcloned into pFastBac® vector (Invitrogen/Life Technologies) for making baculovirus carrying this epitope-tagged Btk. […] Passage 3 virus is used to infect Sf9 cells to overexpress the recombinant Btk protein. The Btk protein is then purified to homogeneity using Ni-NTA column. […] A solution of 200 μM ATP is prepared in water and adjusted to pH 7.4 with 1N NaOH. A quantity of 1.25 μL (microliter) of compounds in 5% DMSO is transferred to a 96-well ½ area Costar polystyrene plate. Compounds are tested singly and with an 11-point dose-responsive curve (starting concentration is 10 μM; 1:2 dilution). A quantity of 18.75 μL of master mix minus enzyme (as a negative control) and master mix plus enzyme is transferred to appropriate wells in 96-well ½ area costar polystyrene plate. 5 μL of 200 μM ATP is added to that mixture in the 96-well ½ area Costar polystyrene plate for final ATP concentration of 40 μM. The reaction is allowed to incubate for 1 hour at room temperature. The reaction is stopped with Perkin Elmer 1× detection buffer containing 30 mM EDTA, 20 nM SA-APC, and 1 nM PT66 Ab. […] IC50 values are subsequently calculated. Alternatively, the Lanthascreen assay can be used to evaluate Btk activity through quantification of its phosphorylated peptide product. The FRET (Fluorescence Resonance Energy Transfer) that occurs between the fluorescein on the peptide product and the terbium on the detection antibody decreases with the addition of inhibitors of Btk that reduce the phosphorylation of the peptide. In a final reaction volume of 25 uL, Btk (h) (0.1 ng/25 ul reaction) is incubated with 50 mM Hepes pH 7.5, 10 mM MgCl2, 2 mM MnCl2, 2 mM DTT, 0.2 mM NaVO4, 0.01% BSA, and 0.4 uM fluorescein poly-GAT. […] After incubation for 60 minutes at room temperature, the reaction is stopped by the addition of a final concentration of 2 nM Tb-PY20 detection antibody in 60 mM EDTA for 30 minutes at room temperature.

T1 sequence (Q06187 whole entry): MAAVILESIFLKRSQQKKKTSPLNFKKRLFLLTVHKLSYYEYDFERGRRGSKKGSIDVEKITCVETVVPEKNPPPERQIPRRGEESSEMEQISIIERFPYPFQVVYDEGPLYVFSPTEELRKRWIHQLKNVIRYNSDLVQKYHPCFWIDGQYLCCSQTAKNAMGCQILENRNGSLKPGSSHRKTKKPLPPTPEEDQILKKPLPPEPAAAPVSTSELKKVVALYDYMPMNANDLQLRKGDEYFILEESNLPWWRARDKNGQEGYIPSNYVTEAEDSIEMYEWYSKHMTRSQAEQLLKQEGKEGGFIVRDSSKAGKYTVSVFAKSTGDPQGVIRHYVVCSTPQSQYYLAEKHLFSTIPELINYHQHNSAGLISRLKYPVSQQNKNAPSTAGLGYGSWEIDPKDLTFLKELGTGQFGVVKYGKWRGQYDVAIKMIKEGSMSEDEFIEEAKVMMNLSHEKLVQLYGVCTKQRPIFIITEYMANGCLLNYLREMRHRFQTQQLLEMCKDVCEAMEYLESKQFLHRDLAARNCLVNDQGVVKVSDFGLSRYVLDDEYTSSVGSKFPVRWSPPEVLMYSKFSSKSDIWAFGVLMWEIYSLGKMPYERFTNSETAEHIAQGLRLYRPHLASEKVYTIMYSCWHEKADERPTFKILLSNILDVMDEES

Compound | IC50 ([1]; Table 2, anti-IgM stimulation) | Ki ([2]; Table 2) | IC50 ([1]; Table 1, anti-IgM stimulation) | Ki ([2]; Table 1)
Cn1cc(-c2ccnc(-c3nc4cc(C(C)(C)C)ccc4n3C)c2CO)cc(NC(=O)C2CC2)c1=O [Compound 164, N-[5-[2-(5-tert-butyl-1-methyl-benzimidazol-2-yl)-3-(hydroxymethyl)-4-pyridyl]-1-methyl-2-oxo-3-pyridyl]cyclopropanecarboxamide] | > 10600 nM | > 500 nM |  | 
Cn1cc(-c2ccnc(N3CCn4c(cc5c4CC(C)(C)C5)C3=O)c2CO)cc(NC(=O)c2ccc(N3CCCC3)nc2)c1=O [Compound 113, N-[5-[2-(7,7-dimethyl-4-oxo-1,2,6,8-tetrahydrocyclopenta[3,4]pyrrolo[3,5-b]pyrazin-3-yl)-3-(hydroxymethyl)-4-pyridyl]-1-methyl-2-oxo-3-pyridyl]-6-pyrrolidin-1-yl-pyridine-3-carboxamide] |  |  | > 3500 nM | 77 nM
Cn1cc(-c2ccnc(-n3ncc4cc(C(C)(C)C)cc(F)c4c3=O)c2CO)cc(NC(=O)[C@@H]2CC23CC3)c1=O (single isomer, unassigned) [Compound 161] | 338 nM | 3.7 nM |  | 
Cn1cc(-c2cc(F)cc(N3CCn4c(cc5c4CC(C)(C)C5)C3=O)c2CO)cc(NC(=O)C2CC2)c1=O [Compound 130, N-[5-[3-(7,7-dimethyl-4-oxo-1,2,6,8-tetrahydrocyclopenta[3,4]pyrrolo[3,5-b]pyrazin-3-yl)-5-fluoro-2-(hydroxymethyl)phenyl]-1-methyl-2-oxo-3-pyridyl]cyclopropanecarboxamide] | 35 nM | 1.29 nM |  | 
Cn1cc(-c2cccc(N3CCn4c(cc5c4CC(C)(C)C5)C3=O)c2CO)cc(NC(=O)C2CC2)c1=O [Compound 129, N-[5-[3-(7,7-dimethyl-4-oxo-1,2,6,8-tetrahydrocyclopenta[3,4]pyrrolo[3,5-b]pyrazin-3-yl)-2-(hydroxymethyl)phenyl]-1-methyl-2-oxo-3-pyridyl]cyclopropanecarboxamide] | 51.2 nM | 3.78 nM |  | 
Cn1cc(-c2ccnc(-n3ncc4cc(C(C)(C)C)cc(F)c4c3=O)c2CO)cc(NC(=O)[C@H]2CC23CC3)c1=O (single isomer, unassigned) [Compound 162] | 786 nM | 5 nM |  | 
Cn1cc(-c2ccnc(-c3nc4ccc(C(C)(C)C)cc4n3C)c2CO)cc(NC(=O)C2CC2)c1=O [Compound 160, N-[5-[2-(6-tert-butyl-1-methyl-benzimidazol-2-yl)-3-(hydroxymethyl)-4-pyridyl]-1-methyl-2-oxo-3-pyridyl]cyclopropanecarboxamide] | > 3500 nM | 25.7 nM |  | 
Cn1cc(-c2cc(F)cc(N3CCn4c(cc5c4CC(C)(C)C5)C3=O)c2CO)cc(NC(=O)[C@@H]2C[C@@H]2F)c1=O [Compound 172, (1S,2S)—N-[5-[3-(7,7-dimethyl-4-oxo-1,2,6,8-tetrahydrocyclopenta[3,4]pyrrole[3,5-b]pyrazin-3-yl)-5-fluoro-2-(hydroxymethyl)phenyl]-1-methyl-2-oxo-3-pyridyl]-2-fluoro-cyclopropanecarboxamide] | 17 nM | 0.8 nM |  | 
CC(=O)Nc1cc(-c2ccnc(-n3ncc4cc(C(C)(C)C)cc(F)c4c3=O)c2CO)cn(C)c1=O [Compound 127, N-[5-[2-(6-tert-butyl-8-fluoro-1-oxo-phthalazin-2-yl)-3-(hydroxymethyl)-4-pyridyl]-1-methyl-2-oxo-3-pyridyl]acetamide] |  |  | 335 nM | 10.8 nM
CC1CC1C(=O)Nc1cc(-c2ccnc(N3CCn4c(cc5c4CC(C)(C)C5)C3=O)c2CO)cn(C)c1=O (stereo not drawn) [Compound 106, N-[5-[2-(7,7-dimethyl-4-oxo-1,2,6,8-tetrahydrocyclopenta[3,4]pyrrolo[3,5-b]pyrazin-3-yl)-3-(hydroxymethyl)-4-pyridyl]-1-methyl-2-oxo-3-pyridyl]-2-methyl-cyclopropanecarboxamide] |  |  | 373 nM | 10.6 nM
Cn1cc(-c2ccnc(N3CCn4c(cc5c4CC(C)(C)C5)C3=O)c2CO)cc(NC(=O)[C@@H]2CCCO2)c1=O (stereo in doubt) [Compound 149, (2S)—N-[5-[2-(7,7-dimethyl-4-oxo-1,2,6,8-tetrahydrocyclopenta[3,4]pyrrolo[3,5-b]pyrazin-3-yl)-3-(hydroxymethyl)-4-pyridyl]-1-methyl-2-oxo-3-pyridyl]tetrahydrofuran-2-carboxamide] | > 6300 nM |  |  | 
COCC(=O)Nc1cc(-c2ccnc(N3CCn4c(cc5c4CC(C)(C)C5)C3=O)c2CO)cn(C)c1=O [Compound 157, N-[5-[2-(7,7-dimethyl-4-oxo-1,2,6,8-tetrahydrocyclopenta[3,4]pyrrolo[3,5-b]pyrazin-3-yl)-3-(hydroxymethyl)-4-pyridyl]-1-methyl-2-oxo-3-pyridyl]-2-methoxy-acetamide] | > 4400 nM |  |  | 
Cn1cc(-c2ccnc(N3CCc4c(cc5n4CCCC5)C3=O)c2CO)cc(NC(=O)C2CC2)c1=O [Compound 133, N-[5-[3-(hydroxymethyl)-2-(1-oxo-3,4,6,7,8,9-hexahydropyrido[3,4-b]indolizin-2-yl)-4-pyridyl]-1-methyl-2-oxo-3-pyridyl]cyclopropanecarboxamide] | > 4300 nM |  |  | 
Cn1cc(-c2ccnc(N3CCn4c(cc5c4CC(C)(C)C5)C3=O)c2CO)cc(NC(=O)c2cccnc2)c1=O [Compound 109, N-[5-[2-(7,7-dimethyl-4-oxo-1,2,6,8-tetrahydrocyclopenta[3,4]pyrrolo[3,5-b]pyrazin-3-yl)-3-(hydroxymethyl)-4-pyridyl]-1-methyl-2-oxo-3-pyridyl]pyridine-3-carboxamide] |  |  | > 5200 nM | 
Cn1cc(-c2ccnc(N3CCn4c(cc5c4CC(C)(C)C5)C3=O)c2CO)cc(NC(=O)C2(O)CC2)c1=O [Compound 135, N-[5-[2-(7,7-dimethyl-4-oxo-1,2,6,8-tetrahydrocyclopenta[3,4]pyrrolo[3,5-b]pyrazin-3-yl)-3-(hydroxymethyl)-4-pyridyl]-1-methyl-2-oxo-3-pyridyl]-1-hydroxy-cyclopropanecarboxamide] | > 3400 nM |  |  | 
Cn1cc(-c2ccnc(N3CCn4c(cc5c4CC(C)(C)C5)C3=O)c2CO)cc(NC(=O)C2(F)CC2)c1=O [Compound 134, N-[5-[2-(7,7-dimethyl-4-oxo-1,2,6,8-tetrahydrocyclopenta[3,4]pyrrolo[3,5-b]pyrazin-3-yl)-3-(hydroxymethyl)-4-pyridyl]-1-methyl-2-oxo-3-pyridyl]-1-fluoro-cyclopropanecarboxamide] | 4200 nM |  |  | 
CC(=O)Nc1cc(-c2ccnc(N3CCn4c(cc5c4CC(C)(C)C5)C3=O)c2CO)cn(C)c1=O [Compound 121, N-[5-[2-(7,7-dimethyl-4-oxo-1,2,6,8-tetrahydrocyclopenta[3,4]pyrrolo[3,5-b]pyrazin-3-yl)-3-(hydroxymethyl)-4-pyridyl]-1-methyl-2-oxo-3-pyridyl]acetamide] |  |  | 535 nM | 
